ChEMBL document CHEMBL1201862, “PubChem BioAssay data set” (2004)
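Each compound was tested at five concentrations against cells in 96-well plates for 48 hours. Abbreviation: GI50, concentration required for 50% inhibition of growth.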 Active and inactive are the calls of the source. Cut-off read from the data, not from the text of the source: active = GI50 up to about 1.1 µM and inactive = higher.

How the values were obtained:
Test in all cases: NCI-60 cell line screen, 48 h
NCI-H226 = tested on: NCI-H226
HCT-116 = tested on: HCT-116
SF-539 = tested on: SF-539
XF498 = tested on: XF498
SNB-75 = tested on: SNB-75
SNB-19 = tested on: SNB-19
CCRF-CEM = tested on: CCRF-CEM
RPMI-8226 = tested on: RPMI-8226
HOP-62 = tested on: HOP-62
NCI-H460 = tested on: NCI-H460
NCI-H522 = tested on: NCI-H522
UO-31 = tested on: UO-31
TK-10 = tested on: TK-10
KM12 = tested on: KM12
SK-MEL-5 = tested on: SK-MEL-5
Malme-3M = tested on: Malme-3M
COLO 205 = tested on: COLO 205
K562 = tested on: K562
SK-MEL-28 = tested on: SK-MEL-28
DMS-273 = tested on: DMS-273
UACC-62 = tested on: UACC-62
NCI-H23 = tested on: NCI-H23
SN12C = tested on: SN12C
M14 = tested on: M14
SF-268 = tested on: SF-268
DLD-1 = tested on: DLD-1
SNB-78 = tested on: SNB-78
A549 = tested on: A549
DMS-114 = tested on: DMS-114
ACHN = tested on: ACHN
OVCAR-3 = tested on: OVCAR-3
OVCAR-8 = tested on: OVCAR-8
IGROV-1 = tested on: IGROV-1
HT-29 = tested on: HT-29
U-251 = tested on: U-251
RXF 393 = tested on: RXF 393
SW-620 = tested on: SW-620
786-0 = tested on: 786-0
OVCAR-4 = tested on: OVCAR-4
HCC 2998 = tested on: HCC 2998
HOP-92 = tested on: HOP-92
EKVX = tested on: EKVX
M19-MEL = tested on: M19-MEL
LOX IMVI = tested on: LOX IMVI
SK-OV-3 = tested on: SK-OV-3
SR = tested on: SR
HOP-18 = tested on: HOP-18
SF-295 = tested on: SF-295
HCT-15 = tested on: HCT-15
SK-MEL-2 = tested on: SK-MEL-2
HL-60 = tested on: HL-60
CAKI-1 = tested on: CAKI-1
LXFL 529 = tested on: LXFL 529
KM-20L2 = tested on: KM-20L2
A498 = tested on: A498
UACC-257 = tested on: UACC-257
OVCAR-5 = tested on: OVCAR-5
MOLT-4 = tested on: MOLT-4

C/C(=N/OCCC(=O)O)C1CC1
GI50 (NCI-H226): > 100 µM (inactive) | GI50 (HCT-116): > 100 µM (inactive) | GI50 (SF-539): > 100 µM (inactive) | GI50 (XF498): > 100 µM (inactive) | GI50 (SNB-75): > 100 µM (inactive) | GI50 (SNB-19): > 100 µM (inactive) | GI50 (CCRF-CEM): > 100 µM (inactive) | GI50 (RPMI-8226): > 100 µM (inactive) | GI50 (HOP-62): > 100 µM (inactive) | GI50 (NCI-H460): > 100 µM (inactive) | GI50 (NCI-H522): > 100 µM (inactive) | GI50 (UO-31): > 100 µM (inactive) | GI50 (TK-10): > 100 µM (inactive) | GI50 (KM12): > 100 µM (inactive) | GI50 (SK-MEL-5): > 100 µM (inactive) | GI50 (Malme-3M): > 100 µM (inactive) | GI50 (COLO 205): > 100 µM (inactive) | GI50 (K562): > 100 µM (inactive) | GI50 (SK-MEL-28): > 100 µM (inactive) | GI50 (DMS-273): > 100 µM (inactive) | GI50 (UACC-62): > 100 µM (inactive) | GI50 (NCI-H23): > 100 µM (inactive) | GI50 (SN12C): > 100 µM (inactive) | GI50 (M14): > 100 µM (inactive) | GI50 (SF-268): > 100 µM (inactive) | GI50 (DLD-1): > 100 µM (inactive) | GI50 (SNB-78): > 100 µM (inactive) | GI50 (A549): > 100 µM (inactive) | GI50 (DMS-114): > 100 µM (inactive) | GI50 (ACHN): > 100 µM (inactive) | GI50 (OVCAR-3): > 100 µM (inactive) | GI50 (OVCAR-8): > 100 µM (inactive) | GI50 (IGROV-1): > 100 µM (inactive) | GI50 (HT-29): > 100 µM (inactive) | GI50 (U-251): > 100 µM (inactive) | GI50 (RXF 393): > 100 µM (inactive) | GI50 (SW-620): > 100 µM (inactive) | GI50 (786-0): > 100 µM (inactive) | GI50 (OVCAR-4): > 100 µM (inactive) | GI50 (HCC 2998): > 100 µM (inactive) | GI50 (HOP-92): > 100 µM (inactive) | GI50 (EKVX): > 100 µM (inactive) | GI50 (M19-MEL): > 100 µM (inactive) | GI50 (LOX IMVI): > 100 µM (inactive) | GI50 (SK-OV-3): > 100 µM (inactive) | GI50 (SR): 90.4 µM (inactive) | GI50 (HOP-18): > 100 µM (inactive) | GI50 (SF-295): > 100 µM (inactive) | GI50 (HCT-15): > 100 µM | GI50 (SK-MEL-2): > 100 µM (inactive) | GI50 (HL-60): > 100 µM (inactive) | GI50 (CAKI-1): > 100 µM (inactive) | GI50 (LXFL 529): > 100 µM (inactive) | GI50 (KM-20L2): > 100 µM (inactive)

CC1CN1c1c(C(=O)/C=C/c2ccc(F)cc2)c(-c2ccccc2)nn(C)c1=O (stereo unspecified)
GI50 (NCI-H226): 11.9 µM (inactive) | GI50 (HCT-116): 13.5 µM (inactive) | GI50 (SF-539): > 10 µM (inactive) | GI50 (XF498): 15.3 µM (inactive) | GI50 (SNB-75): 14.3 µM (inactive) | GI50 (SNB-19): 16 µM (inactive) | GI50 (CCRF-CEM): 13.8 µM (inactive) | GI50 (RPMI-8226): 9.46 µM (inactive) | GI50 (A498): > 10 µM (inactive) | GI50 (HOP-62): 23.8 µM (inactive) | GI50 (NCI-H460): 17.1 µM (inactive) | GI50 (NCI-H522): > 10 µM (inactive) | GI50 (UO-31): 12.9 µM (inactive) | GI50 (TK-10): 17.2 µM (inactive) | GI50 (KM12): 15.7 µM (inactive) | GI50 (SK-MEL-5): 16 µM (inactive) | GI50 (Malme-3M): 16 µM (inactive) | GI50 (COLO 205): 18.5 µM (inactive) | GI50 (K562): > 10 µM (inactive) | GI50 (SK-MEL-28): 17.5 µM (inactive) | GI50 (DMS-273): > 10 µM (inactive) | GI50 (UACC-62): 13.6 µM (inactive) | GI50 (NCI-H23): 14 µM (inactive) | GI50 (SN12C): 15.4 µM (inactive) | GI50 (M14): 16.9 µM (inactive) | GI50 (SF-268): 16.3 µM (inactive) | GI50 (DLD-1): 12.8 µM (inactive) | GI50 (SNB-78): 23.4 µM (inactive) | GI50 (A549): 18.3 µM (inactive) | GI50 (DMS-114): 15.7 µM (inactive) | GI50 (ACHN): 16.3 µM (inactive) | GI50 (OVCAR-3): 15.4 µM (inactive) | GI50 (OVCAR-8): 14.2 µM (inactive) | GI50 (IGROV-1): 19.8 µM (inactive) | GI50 (HT-29): 16.9 µM (inactive) | GI50 (U-251): 15.5 µM (inactive) | GI50 (RXF 393): 10.3 µM (inactive) | GI50 (SW-620): 17.9 µM (inactive) | GI50 (786-0): 15.4 µM (inactive) | GI50 (OVCAR-4): 16.5 µM (inactive) | GI50 (HCC 2998): 15.2 µM (inactive) | GI50 (HOP-92): 6.58 µM (inactive) | GI50 (EKVX): 19 µM (inactive) | GI50 (M19-MEL): 14.6 µM (inactive) | GI50 (LOX IMVI): 13.7 µM (inactive) | GI50 (SK-OV-3): > 10 µM (inactive) | GI50 (HOP-18): 15.2 µM (inactive) | GI50 (UACC-257): 14.2 µM (inactive) | GI50 (SF-295): 16.2 µM (inactive) | GI50 (OVCAR-5): 12.3 µM (inactive) | GI50 (HCT-15): > 10 µM | GI50 (SK-MEL-2): 18.2 µM (inactive) | GI50 (HL-60): 13.4 µM (inactive) | GI50 (CAKI-1): > 10 µM (inactive) | GI50 (MOLT-4): 14.3 µM (inactive) | GI50 (LXFL 529): 16.7 µM (inactive) | GI50 (KM-20L2): 17.7 µM (inactive)
